According to patent US20240010679A1, “ANTIN[…] AND USES THEREOF” (THE UNIVERSITY OF BRITISH COLUMBIA, priority 2020, published 2024):
≈ marks a conversion by molar mass, not a printed value. Where “and” joins values, the source holds several entries; their conditions need not be identical. Equal entries are not always repeated. Entries after “also recorded” stand apart in the source; their conditions may differ. Where two headings read alike, the source gives them in different places.

What was measured:
Plasma stability assay = assay type: in vitro ADME, mouse; conditions: for remaining at 1 h, 0.315 mmol/L: mouse plasma, 37° C., read-out: Intact peptide after 1 h in plasma
Description: (§1) Peptides (1.5 g/L) dissolved in saline/TWEEN 80/DMSO (90:5:5, v/v) were mixed with mouse plasma or human cerebrospinal fluid, respectively, to a final concentration of 0.315 mmol/L and incubated in a thermomixer (37° C., 750 rpm) Aliquots (45 μL) were mixed with aqueous acetonitrile (90%, v/v, 300 μL) containing formic acid (FA, 0.1%, v/v) and incubated on ice (30 min). After two centrifugation steps (12,000×g, 5 min), the supernatant (300 μL) was diluted in water (900 μL), dried by lyophilization, reconstituted in aqueous acetonitrile (4.5%, v/v) containing FA (0.1%, v/v), stored at −20° C., and analyzed with reverse-phase chromatography (RPC) on a C8-column (1 mm×150 mm) with a linear aqueous acetonitrile gradient typically from 5 to 95% eluent B in 15 min (eluent A: 0.1% (v/v) aqueous FA; eluent B: 90% aqueous acetonitrile containing 0.1% (v/v) FA. The RPC was coupled on-line to a UV detector measuring the absorbance at 214 nm and a mass spectrometer (MS) for peak identification. Peptide quantities were estimated using peak areas of the UV signal relative to the initial peak areas (t=0).

human DOR = human DOR (Homo sapiens, UniProt P41143); conditions: relative scintillation compared to Leu-ENK at 6 nmol/L, [3H]DADLE displacement, mean of duplicates
Chain of human DOR (P41143 whole entry): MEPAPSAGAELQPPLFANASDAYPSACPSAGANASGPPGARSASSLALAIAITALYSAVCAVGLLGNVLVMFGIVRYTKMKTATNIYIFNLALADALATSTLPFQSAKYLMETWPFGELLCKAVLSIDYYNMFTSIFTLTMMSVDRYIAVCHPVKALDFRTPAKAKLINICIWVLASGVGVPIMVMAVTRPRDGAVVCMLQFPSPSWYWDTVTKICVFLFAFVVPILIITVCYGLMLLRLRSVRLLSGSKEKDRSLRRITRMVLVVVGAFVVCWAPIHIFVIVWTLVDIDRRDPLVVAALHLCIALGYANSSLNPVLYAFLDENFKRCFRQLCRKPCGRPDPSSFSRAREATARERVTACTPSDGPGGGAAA
Description: Binding studies were performed by Eurofins Scientific (Cereb, France). Briefly, COS-1 cells transfected with plasmids encoding human DOR (Gene ID: 4985) were grown in Dulbecco's modified Eagle's medium with 10% fetal calf serum and scraped from plates. Membranes were prepared using a Dounce homogenizer and stored at −80° C. until used. Membranes (40 μg protein/tube) were suspended in Tris-HCl, pH 7.4, for 2 h at 25° C., rapidly filtered on 0.1% polyethylenimine-pretreated GF/B filters and washed with the same cold Tris buffer (3×) using a Brandel cell harvester. […] Nonspecific binding was determined in the presence of naltrexone (10 μmol/L).

female CD-1 mice [1] = test: Formalin foot assay; assay type: in vivo, mouse; conditions: s.c.
Description: (§2) Mice were allowed an acclimatization period of at least one week in the animal facility before experiments.
On the day of the experiment, mice were acclimatized to the experimental setup by putting them in darkened, non-transparent plexiglas cylinders (height, 20 cm; diameter, 9 cm) placed on a glass plane for 2 h. […] After successful injection, mice were immediately placed into cylinders and their behavior was monitored for 1 h. […] The accumulated licking and biting time of each animal was determined and recorded in 5 min bins. The total response time was plotted as early phase 1 from 0 to 5 min, and late phase 2 from 20 to 40 min after formalin injection.

female CD-1 mice [2] = test: Respiratory rate assay; conditions: s.c.; for breathing depression: KK-103 13 mg/kg, morphine 10 mg/kg, FIG. 10C
Description: The respiratory rate was assessed in awake mice lightly restrained in a well-ventilated 50 mL falcon tube with a darkened tip. Prior to the drug treatment, each animal was habituated in the tube for 30 min. The falcon tube was secured onto a stand facing lengthwise to a video camera. […] Animals were recorded at selected time points for 10 min to measure the respiration rate.

female CD1 mice [3] = conditions: mouse, in vivo; cited from earlier work
female CD1 mice [4] = test: Dependence test (naloxone-induced jumps); conditions: twice daily s.c., KK-103 13 mg/kg, morphine 10 mg/kg; naloxone 4 mg/kg i.p., first 10 min
CSF stability assay = assay type: in vitro ADME, human; conditions: 5 h of incubation
Description: as §1

[5] = Stability in the presence of human liver microsomes; assay type: in vitro ADME; conditions: after 1 h, read-out: drug degradation in the presence of human liver microsomes
[6] = tested on: human liver microsome enzymes; test: Inhibition of human liver microsome enzymes; assay type: in vitro ADME
female CD1 mice [7] = test: Toxicity, highest deliverable single dose; assay type: in vivo, mouse; conditions: single s.c. dose
Description: Animals were monitored and evaluated every 30 min. After 3 h, the time of maximal antinociceptive effect, animals were euthanized.

[8] = Plasma and brain concentrations after injection (UPLC); assay type: in vivo; conditions: female, CD-1, mouse; for tissue level at time at 2 h: 2 h after s.c. injection; for half-life: 50 mg/kg, read-out: elimination half-life
Description: Blood collection from mice was performed by saphenous vein punctuation (volume withdrawn <7 mL/kg) followed by a cardiac puncture later, allowing for 2 sampling time points per animal with a minimum sampling interval of 50 min. Cardiac puncture was an experimental endpoint after which animals were euthanized using isoflurane followed by cervical dislocation. Blood samples were collected in EDTA coated collection tubes and chilled on ice immediately after collection. Blood plasma was separated from whole blood by centrifugation at 2.000 g for 7 min and carefully removed from the cell pellet. Blood plasma samples were immediately frozen on dry ice and stored at −80 C until further analysis.
Samples for liquid chromatography-mass spectrometry analysis were prepared by acetonitrile protein precipitation. Therefore, 50 μL of plasma was combined with 300 μL ice cold 90% acetonitrile containing 0.1% formic acid, briefly vortexed and put on ice for 30 min. After that samples were centrifuged at 4 C for 5 min (>12 k rpm) and supernatant (325 μL) transferred in a new tube. The previous centrifugation step was repeated and a final volume of 305 μL of the supernatant transferred into a new 1.5 mL tube. Water (800 μL) was added to samples after which they were frozen and lyophilized. The dried samples were resolubilized in 50 μL 4.5% acetonitrile, 0.1% formic acid in water, vortexed (1 min), sonicated (5 min), vortexed (1 min) and centrifuged for 5 min (>12 k rpm). Samples were measured in an ACQUITY UPLC H-Class chromatography system (Waters, Milford, MA) and a sample volume of 10 μL was injected onto the reverse phase column.
An ACQUITY UPLC H-Class chromatography system (Waters, Milford, MA) coupled on-line to a photodiode array detector (absorbance recorded at 214 nm, Waters) and to the electrospray ionization source on a mass spectrometer (QDa detector, Waters) operated in the positive ion mode was used. Separation relied on a BEH-C18 column (inner diameter: 1.1 mm; length: 50 mm; particle size: 1.7 μm, Waters) at a flow rate of 0.1 mL/min using a linear aqueous acetonitrile gradient in the presence of FA (0.1%, v/v).
Ionization was carried out at a source temperature of 450° C. using a cone voltage of 10 V and a capillary voltage of 1.5 kV. Mass spectra were typically acquired for an m/z range from 50 to 1250 at a sampling rate of 2 points per second. Quantities of the peptide were determined based on a calibration curve of the analyte in mouse plasma and the peak areas of the UV signal at 214 nm as well as mass spectrometry by detecting the singly charged molecular ions.

female CD-1 mice [9] = test: Open field test; conditions: 15 mg/kg s.c.
Source text: as §2

[10] = Solubility in injection vehicle; assay type: physicochemical; conditions: normal saline/TWEEN 80 (9/1, v/v) injection vehicle

SMILES: CC(C)C[C@H](NC(=O)[C@H](Cc1ccccc1)NC(=O)CNC(=O)CNC(=O)[C@@H](N)Cc1ccc(O)cc1)C(=O)O [Leu-ENK, YGGFL, reference compound]
- remaining at 1 h, 0.315 mmol/L (Plasma stability assay): 23 ± 3%

SMILES: COC(=O)[C@H](CC(C)C)NC(=O)[C@H](Cc1ccccc1)NC(=O)CNC(=O)CNC(=O)[C@H](Cc1ccc(O)cc1)NC(C)=O [KK-14]
- Relative Binding to DOR (human DOR): 38%
- remaining at 1 h, 0.315 mmol/L (Plasma stability assay): 82 ± 3%

SMILES: CN1CC[C@]23c4c5ccc(O)c4O[C@H]2[C@@H](O)C=C[C@H]3[C@H]1C5 [morphine]
- nociceptive response in phase 2, in words (female CD-1 mice [1]; 10 mg/kg, phase 2 (20-40 min)): completely diminished the nociceptive response
- reduction of paw licking and biting time, phase 1 (0-5 min), compared to the control (female CD-1 mice [1]; morphine 10 mg/kg, KK-103 13 mg/kg): 30%
- decrease of respiratory rate compared with vehicle control (female CD-1 mice [2]; 10 mg/kg, 30 min post injection): 56%
- breathing depression (female CD-1 mice [2]): significant reduction of breathing rate
- dose up to which safe to use (female CD1 mice [3]): up to 60 mg/kg
- physical dependence: withdrawal jumps after naloxone (female CD1 mice [4]): significant withdrawal syndromes

SMILES: CCCCCCCC(=O)N[C@@H](Cc1ccc(O)cc1)C(=O)NCC(=O)NCC(=O)N[C@@H](Cc1ccccc1)C(=O)N[C@@H](CC(C)C)C(=O)OC [KK-105]
- Relative Binding to DOR (human DOR): 59%
- remaining at 1 h, 0.315 mmol/L (Plasma stability assay): 80 ± 12%

SMILES: COC(=O)[C@H](CC(C)C)NC(=O)[C@H](Cc1ccccc1)NC(=O)CNC(=O)CNC(=O)[C@H](Cc1ccc(O)cc1)NC(=O)C1CCCCC1 [KK-112]
- Relative Binding to DOR (human DOR): 13%
- remaining at 1 h, 0.315 mmol/L (Plasma stability assay): 62 ± 7%

SMILES: COC(=O)[C@H](CC(C)C)NC(=O)[C@H](Cc1ccccc1)NC(=O)CNC(=O)CNC(=O)[C@H](Cc1ccc(O)cc1)NC(=O)Cc1ccccc1 [KK-81]
- Relative Binding to DOR (human DOR): 41%
- remaining at 1 h, 0.315 mmol/L (Plasma stability assay): 88 ± 11%

SMILES: CC(C)C[C@H](NC(=O)[C@H](Cc1ccccc1)NC(=O)CNC(=O)CNC(=O)[C@H](Cc1ccc(O)cc1)NC(=O)C(C)(C)C)C(=O)O [KK-103]
- Relative Binding to DOR (human DOR): 65% and ~70%
- time stable in mouse plasma (Plasma stability assay): at least 5 h
- half-life in mouse plasma (Plasma stability assay; extrapolated): 36 h
- remaining at 1 h, 0.315 mmol/L (Plasma stability assay): 93%
- half-life at 0.315 mmol/L (Plasma stability assay; mouse, plasma, extrapolated): 37 h
- stability in cerebrospinal fluid (CSF stability assay): almost no degradation
- metabolised at 1 h [5]: < 10%
- inhibition of human liver microsome enzymes [6]: did not inhibit
- toxicity at the highest deliverable dose (female CD1 mice [7]): no toxicity
- respiration rate versus vehicle (female CD-1 mice [2]; 13 mg/kg, any time point between 30 and 240 min): comparable to that of mice treated with vehicle
- breathing depression (female CD-1 mice [2]): did not induce breathing depression
- tissue level at time at 2 h ([8]; brain, sc, read-out: concentration in brain): 200 ng/g
- half-life ([8]; plasma, iv): 4.8 min
- half-life ([8]; plasma, sc): 8.9 min
- tissue level at time at 2 h ([8]; plasma, sc, read-out: concentration in plasma): 170000 ng/g
- effect on locomotor activity (female CD-1 mice [9]): without effecting the locomotor activity
- solubility [10]: 5000 µg/mL (≈ 7.82 mM)
- physical dependence: withdrawal jumps after naloxone (female CD1 mice [4]): not a single jump was observed

SMILES: COC(=O)[C@H](CC(C)C)NC(=O)[C@H](Cc1ccccc1)NC(=O)CNC(=O)CNC(=O)[C@H](Cc1ccc(O)cc1)NC(=O)C(C)(C)C [KK-102]
- Relative Binding to DOR (human DOR; listed as KK-102/ KK-103): 68%
- conversion in mouse plasma (deesterification of methyl ester) (Plasma stability assay): converting to KK-103; also recorded: rapidly deesterifies to KK-103
- remaining at 1 h, 0.315 mmol/L (Plasma stability assay): 93 ± 1%

SMILES: CCCCCC(=O)N[C@@H](Cc1ccc(O)cc1)C(=O)NCC(=O)NCC(=O)N[C@@H](Cc1ccccc1)C(=O)N[C@@H](CC(C)C)C(=O)OC [KK-93]
- Relative Binding to DOR (human DOR): 33%
- remaining at 1 h, 0.315 mmol/L (Plasma stability assay): 85 ± 11%

SMILES: C=CCCC(=O)N[C@@H](Cc1ccc(O)cc1)C(=O)NCC(=O)NCC(=O)N[C@@H](Cc1ccccc1)C(=O)N[C@@H](CC(C)C)C(=O)OC [KK-108]
- Relative Binding to DOR (human DOR): 34%
- remaining at 1 h, 0.315 mmol/L (Plasma stability assay): 73 ± 7%
